US8901118B2, “Compounds and methods for kinase modulation, and indications therefor” (Plexxikon Inc., priority 2010, dated 2014)

Experiments:
[1] = target: T1, CYP1A2 (Homo sapiens, UniProt P05177); test: CYP1A2 inhibition (fluorescent substrate CEC); format: in vitro ADME; conditions: read-out: Cyp IC50 1A2
T1 sequence (P05177 1-516): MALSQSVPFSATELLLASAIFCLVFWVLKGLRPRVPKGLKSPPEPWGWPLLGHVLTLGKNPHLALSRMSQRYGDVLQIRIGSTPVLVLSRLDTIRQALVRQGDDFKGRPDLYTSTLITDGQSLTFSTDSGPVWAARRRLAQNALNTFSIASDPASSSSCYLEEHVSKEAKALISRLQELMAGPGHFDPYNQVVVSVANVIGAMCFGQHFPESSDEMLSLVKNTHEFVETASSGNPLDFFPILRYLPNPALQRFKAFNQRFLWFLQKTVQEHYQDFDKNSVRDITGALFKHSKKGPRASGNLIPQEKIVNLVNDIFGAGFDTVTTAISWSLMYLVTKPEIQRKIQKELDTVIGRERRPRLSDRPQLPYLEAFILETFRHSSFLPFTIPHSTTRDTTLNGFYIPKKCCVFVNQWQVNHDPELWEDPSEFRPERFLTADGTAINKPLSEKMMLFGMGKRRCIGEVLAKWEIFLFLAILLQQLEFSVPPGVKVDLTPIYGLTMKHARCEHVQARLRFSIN
Method: (§1) CYP (Cytochrome P450) enzymes are the major drug metabolizing enzymes present in the liver. The inhibition of CYP enzyme activity (IC50) for each of CYP1A2, CYP2C19, CYP2C9, CYP2D6, CYP3A4(BFC) and CYP3A4(BQ) is determined for compounds, where inhibition of metabolism of a known substrate leads to a decrease in the fluorescence of the metabolized product. The fluorescence of the product is monitored as a function of compound concentration. Compounds are dissolved in DMSO to a concentration of 100 mM. These are diluted 1 μL into 82 μL of acetonitrile. An 11 μL aliquot of this solution is then added to 204 μL of cofactor mix (1.3% NADPH Regeneration system Solution A, 1.04% NADPH Regeneration system Solution B from BD Biosciences, 5% acetonitrile and 0.05% DMSO). These are then serially diluted 1:1 (160 μL to 160 μL co-factor mix) for a total of 10 points. A 10 μL aliquot of this final mixture is dispensed into 384 well assay plates and incubated for 10 minutes at 37° C. […] Assay plates are incubated at 37° C. (CYP1A2-15 min; CYP2C9-45 min; CYP2C19, 2D6 and 3A4-30 min) and read in a Tecan Safire 2 plate reader (CYP1A2, 2C19 and 3A4 409 ex/460 em; CYP2C9 and 2D6 409 ex/530 em). The signal versus compound concentration is used to determine the IC50. The enzymes and substrates for this assay are obtained from BD Biosciences.

[2] = target: CYP3A4(BQ) (Homo sapiens, UniProt P08684); test: CYP3A4(BQ) inhibition; format: in vitro ADME; conditions: CYP3A4, substrate BQ; read-out: Cyp IC50 3A4(BQ)
Sequence of CYP3A4(BQ) (P08684 whole entry): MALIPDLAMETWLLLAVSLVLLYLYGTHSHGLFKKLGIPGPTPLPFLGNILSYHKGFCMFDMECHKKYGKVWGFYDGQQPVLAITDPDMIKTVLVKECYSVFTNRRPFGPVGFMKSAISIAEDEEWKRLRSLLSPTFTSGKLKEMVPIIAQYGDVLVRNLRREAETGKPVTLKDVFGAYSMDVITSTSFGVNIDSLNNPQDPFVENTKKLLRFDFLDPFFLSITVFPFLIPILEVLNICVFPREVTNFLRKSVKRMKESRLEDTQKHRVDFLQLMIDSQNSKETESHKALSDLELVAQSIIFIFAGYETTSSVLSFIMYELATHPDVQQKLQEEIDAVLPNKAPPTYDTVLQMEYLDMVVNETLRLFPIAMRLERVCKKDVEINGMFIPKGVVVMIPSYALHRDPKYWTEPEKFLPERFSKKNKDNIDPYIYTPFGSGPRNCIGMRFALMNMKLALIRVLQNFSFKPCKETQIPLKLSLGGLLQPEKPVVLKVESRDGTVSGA
Method: as §1

[3] = target: T2, BCR-NTRK3 BaF3 cells (Homo sapiens, UniProt Q16288); test: BaF3 BCR-NTRK3 cell proliferation assay (ATPlite); format: cell-based; conditions: read-out: Inhibition of Cell Proliferation IC50, BCR/BaF3 TrkC
T2 construct: fused on or other part: P11274 (Breakpoint cluster region protein)
T2 sequence (Q16288 whole entry, the tested form may be a part): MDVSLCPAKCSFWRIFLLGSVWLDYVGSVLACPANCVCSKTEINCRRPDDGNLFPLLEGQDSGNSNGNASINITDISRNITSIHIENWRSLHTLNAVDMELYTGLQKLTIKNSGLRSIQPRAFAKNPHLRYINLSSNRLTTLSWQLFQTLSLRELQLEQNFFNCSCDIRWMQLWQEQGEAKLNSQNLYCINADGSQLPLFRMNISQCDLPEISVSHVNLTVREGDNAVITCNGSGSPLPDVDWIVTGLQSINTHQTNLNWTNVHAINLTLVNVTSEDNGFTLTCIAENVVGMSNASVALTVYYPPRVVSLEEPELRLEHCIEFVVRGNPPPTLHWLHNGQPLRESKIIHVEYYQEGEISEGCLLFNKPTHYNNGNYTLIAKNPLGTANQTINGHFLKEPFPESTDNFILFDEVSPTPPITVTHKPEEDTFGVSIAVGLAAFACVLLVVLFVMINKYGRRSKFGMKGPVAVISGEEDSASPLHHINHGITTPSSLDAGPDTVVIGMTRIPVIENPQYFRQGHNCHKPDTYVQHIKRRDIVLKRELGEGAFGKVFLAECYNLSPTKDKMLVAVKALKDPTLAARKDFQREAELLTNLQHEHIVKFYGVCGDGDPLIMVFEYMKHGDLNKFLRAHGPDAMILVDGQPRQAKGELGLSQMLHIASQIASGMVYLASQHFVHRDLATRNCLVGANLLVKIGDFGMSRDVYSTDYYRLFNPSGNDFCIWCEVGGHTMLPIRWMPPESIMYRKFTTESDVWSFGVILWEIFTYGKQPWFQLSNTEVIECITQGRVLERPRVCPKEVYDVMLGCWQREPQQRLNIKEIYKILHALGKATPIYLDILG
Method: (§2) Compounds are assessed in a variety of cell based assays. For example BaF3 cells engineered with any of BCR-FMS, BCR-KIT, BCR-FLT3, BCR-NTRK1, BCR-NTRK2, and BCR-NTRK3, are used in cell proliferation assays to assess inhibitory activity of Fms, Kit, Flt-3, TrkA, TrkB, and TrkC, respectively. An MV-4-11 (leukemia) cell proliferation assay is used to assess inhibitory activity in Flt-3, and SKNSH (human neuroblastoma) cell proliferation assay is used to assess efficacy of Fms/Trk inhibitors. Additional cells may be assayed similarly to assess the efficacy of Fms/Trk inhibitors, such as MiaPaCa (human pancreatic cancer) and Capan-1 (human pancreatic carcinoma) cells. Reagent and assay conditions are as follows: • BaF3 cells: • Maintained in RPMI containing 10% FBS, 1% PenStrep, 1% NEAA, and 1% L-Glutamine, supplemented with 1 mg/mL G418 and 5% WEHI-CM (or recombinant murine IL-3). • Confluent cells are split 1:50 to 1:100 every 3-4 days. • MV-4-11 cells: • Maintained in Iscove's Modified Dulbecco's Medium containing 10% FBS. • Confluent cells are split 1:4 every 3-4 days. • SKNSH cells: RPMI containing 10% FBS. On day 1, cells are counted, then centrifuged in a conical tube for 5 minutes at 1000 rpm. The supernatant is removed and cells are re-suspended as follows: • BaF3: resuspend in growth media +1 mg/mL G418 (without WEHFIL-3) to 2×10^5 cells/mL. • MV-4-11: resuspend in growth media to 5×10^5 cells/mL. • SKNSH: resuspend in growth media to 2×10^4 cells/mL. The cells are plated (50 μL, 150 μL for SKNSH cells) in each well of a 96-well dish (Corning 3610) and incubated at 37° C. in 5% CO2 overnight, cells plated to a final concentration of cells as follows: • BaF3: 10,000 cells per well. • MV-4-11: 25,000 cells per well. • SKNSH: 3,000 cells per well. On day 2, compound at a maximum concentration of 5 mM is serially diluted 1:3 for a total of 8 point titration with DMSO as a control. A 1 μL aliquot of each dilution point is added to 249 μL growth media and 50 μL is added to a well containing cells, providing 10 μM compound for the maximum concentration point. The cells are incubated for 3 days at 37° C. in 5% CO2. For SKNSH cells, a 0.75 μL aliquot of appropriate dilution in DMSO is added to 150 μL of cells. On day 5, ATPlite 1 step Luminescence Assay System (Perkin Elmer #6016739) is brought to room temperature along with the cell cultures. ATPlite is added to each well as follows: • BaF3: 25 μL per well. • MV-4-11: 40 μL per well. • SKNSH: 20 μL per well. The cells are incubated at room temperature for 10 minutes, then luminescence is read on Safire reader. The measured luminescence correlates directly with cell number, such that the reading as a function of compound concentration is used to determine the IC50 value.
(§3) It is understood that the results of these assays may vary as assay conditions are varied. Inhibition levels determined under the conditions described herein represent a relative activity for the compounds tested under the specific conditions employed. The cell based assays are likely to show variability due to the complexity of the system and the sensitivity thereof to any changes in the assay conditions. […] Results for compounds that are tested and show substantially no inhibition below the highest tested concentration are represented as “-” in the tables below. In some instances, the compounds were not tested in all of the assays, or assay results were not valid, as indicated by NA in the tables below.

[4] = target: T3, BCR-KIT BaF3 cells (Homo sapiens, UniProt P10721); test: BaF3 BCR-KIT cell proliferation assay (ATPlite); format: cell-based; conditions: read-out: Inhibition of Cell Proliferation IC50, BCR/BaF3 Kit
T3 construct: fused on or other part: P11274 (Breakpoint cluster region protein)
T3 sequence (P10721 589-937): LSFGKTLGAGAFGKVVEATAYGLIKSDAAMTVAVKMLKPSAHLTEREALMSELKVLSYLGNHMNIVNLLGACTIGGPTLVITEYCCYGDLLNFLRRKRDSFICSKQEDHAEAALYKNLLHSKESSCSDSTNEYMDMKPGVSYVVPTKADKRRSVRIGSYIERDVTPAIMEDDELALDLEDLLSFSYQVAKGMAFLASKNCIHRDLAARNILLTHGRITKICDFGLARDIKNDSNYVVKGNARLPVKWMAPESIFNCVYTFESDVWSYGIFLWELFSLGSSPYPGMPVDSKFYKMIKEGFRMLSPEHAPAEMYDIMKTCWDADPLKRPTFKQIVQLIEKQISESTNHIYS
Method: as §2, §3

Row | Compound | IC50 [1] [µM] | IC50 [2] [µM] | IC50 [3] [µM] | IC50 [4] [µM]
1 | COc1ccc(Nc2ccc(C(=O)c3c[nH]c4ncnc(NC(C)C)c34)c(F)n2)cn1 [Compound P-4066, [2-fluoro-6-[(6-methoxy-3-pyridyl)amino]-3-pyridyl]-[4-(isopropylamino)-7H-pyrrolo[2,3-d]pyrimidin-5-yl]methanone] | > 10 | 5 to 10 | < 0.01 | < 0.01
2 | CNc1ncnc2[nH]cc(C(=O)c3ccc(NC4CCC(F)(F)CC4)nc3)c12 [Compound P-4089, [6-[(4,4-difluorocyclohexyl)amino]-3-pyridyl]-[4-(methylamino)-7H-pyrrolo[2,3-d]pyrimidin-5-yl]methanone] | > 10 | > 10 | < 0.01 | < 1
3 | Clc1ccc(Nc2ncc(Cc3c[nH]c4ncc(Cl)cc34)cn2)cc1 [Compound P-3011, (4-Chloro-phenyl)-[5-(5-chloro-1H-pyrrolo[2,3-b]pyridin-3-ylmethyl)-pyrimidin-2-yl]-amine] | > 10 | > 10 | < 0.1 | < 0.1
4 | CCc1ccc(Nc2ccc(C(=O)c3c[nH]c4ncnc(NCC(C)C)c34)c(F)n2)cn1 [Compound P-4121, [6-[(6-ethyl-3-pyridyl)amino]-2-fluoro-3-pyridyl]-[4-(isobutylamino)-7H-pyrrolo[2,3-d]pyrimidin-5-yl]methanone] | > 10 | > 10 | < 0.01 | < 0.1
5 | CCNc1ncnc2[nH]cc(C(=O)c3ccc(Nc4ccc(C5CC5)nc4)nc3F)c12 [Compound P-4060, [6-[(6-cyclopropyl-3-pyridyl)amino]-2-fluoro-3-pyridyl]-[4-(ethylamino)-7H-pyrrolo[2,3-d]pyrimidin-5-yl]methanone] | > 10 | > 10 | < 0.01 | < 0.1
6 | CNc1ncnc2[nH]cc(C(=O)c3ccc(Nc4ccc(C)nc4)nc3F)c12 [Compound P-4115, [2-fluoro-6-[(6-methyl-3-pyridyl)amino]-3-pyridyl]-[4-(methylamino)-7H-pyrrolo[2,3-d]pyrimidin-5-yl]methanone] | < 5 | > 10 | < 0.01 | < 1
7 | COc1cncc(Nc2ccc(C(=O)c3c[nH]c4ncnc(NC5CC5)c34)c(F)n2)c1 [Compound P-4107, [4-(cyclopropylamino)-7H-pyrrolo[2,3-d]pyrimidin-5-yl]-[2-fluoro-6-[(5-methoxy-3-pyridyl)amino]-3-pyridyl]methanone] | < 5 | > 10 | < 0.01 | < 1
8 | Fc1cc(Cc2c[nH]c3ncnc(NC4CC4)c23)cnc1NC1CCC(F)(F)CC1 [Compound P-4127, N-cyclopropyl-5-[[6-[(4,4-difluorocyclohexyl)amino]-5-fluoro-3-pyridyl]methyl]-7H-pyrrolo[2,3-d]pyrimidin-4-amine] | > 10 | < 5 | < 0.1 | < 0.1
9 | COc1ccc(Nc2ccc(C(=O)c3c[nH]c4ncnc(NC5CCCC5)c34)c(F)n2)cn1 [Compound P-4075, [4-(cyclopentylamino)-7H-pyrrolo[2,3-d]pyrimidin-5-yl]-[2-fluoro-6-[(6-methoxy-3-pyridyl)amino]-3-pyridyl]methanone] | > 10 | > 10 | < 0.01 | < 0.1
10 | CCCNc1ncnc2[nH]cc(C(=O)c3ccc(Nc4cncc(OC)c4)nc3F)c12 [Compound P-4105, [2-fluoro-6-[(5-methoxy-3-pyridyl)amino]-3-pyridyl]-[4-(propylamino)-7H-pyrrolo[2,3-d]pyrimidin-5-yl]methanone] | > 10 | > 10 | < 1 | > 1
11 | Cc1ccc(Nc2ccc(C(=O)c3c[nH]c4ncnc(NC5CCCCC5)c34)c(F)n2)cn1 [Compound P-4111, [4-(cyclohexylamino)-7H-pyrrolo[2,3-d]pyrimidin-5-yl]-[2-fluoro-6-[(6-methyl-3-pyridyl)amino]-3-pyridyl]methanone] | > 10 | 5 to 10 | < 0.01 | < 1
12 | CNc1ncnc2[nH]cc(C(=O)c3ccc(Nc4ccc(C5CC5)nc4)nc3F)c12 [Compound P-4094, [6-[(6-cyclopropyl-3-pyridyl)amino]-2-fluoro-3-pyridyl]-[4-(methylamino)-7H-pyrrolo[2,3-d]pyrimidin-5-yl]methanone] | < 5 | > 10 | < 0.01 | < 0.1
13 | CNc1ncnc2[nH]cc(C(=O)c3ccc(Nc4ccc(C(F)(F)F)nc4)nc3F)c12 [Compound P-4092, [2-fluoro-6-[[6-(trifluoromethyl)-3-pyridyl]amino]-3-pyridyl]-[4-(methylamino)-7H-pyrrolo[2,3-d]pyrimidin-5-yl]methanone] | < 5 | > 10 | < 0.01 | < 0.1
14 | CCCNc1ncnc2[nH]cc(C(=O)c3ccc(Nc4ccc(OC)nc4)nc3F)c12 [Compound P-4068, [2-fluoro-6-[(6-methoxy-3-pyridyl)amino]-3-pyridyl]-[4-(propylamino)-7H-pyrrolo[2,3-d]pyrimidin-5-yl]methanone] | > 10 | > 10 | < 0.01 | < 0.1
